According to patent US20250051356A1, “RIFABUTIN ANALOGS FOR THE TREATMENT OF DISEASE” (priority 2021, published 2025):
In brackets after ≈: the same amount, converted by molar mass. Where two headings read alike, the source gives them in different places.

Key:
Assay type in all cases: cell-based
[1] = tested on: A. baumannii with Arr-mediated and RpoB mutation-mediated resistance
[2] = tested on: A. baumannii wild type (WT); assay: MIC against A. baumannii isolate in RPMI + FCS
[3] = tested on: M. abscessus subsp. bolletii CCUG 50184; assay: MIC against M. abscessus isolate in 7H9 + ADC; settings: Mycobacteroides abscessus, CCUG50184
[4] = tested on: M. abscessus subsp. abscessus ATCC 19977; assay: MIC against M. abscessus in Middlebrook 7H9 + ADC; settings: Mycobacteroides abscessus
[5] = tested on: Hemophilus influenzae (strain ATCC 49247); assay: MIC against H. influenzae; settings: Haemophilus influenzae, ATCC49247, Hemophilus test medium broth
M. kansasii (ATCC 12478) = assay: MIC against M. kansasii in CAMHB + ADC; settings: Mycobacterium kansasii, ATCC12478; ATCC 12478; CAMHB + ADC (5%); read-out: MIC M. kansasii
[6] = tested on: Staphylococcus epidermidis (strain ATCC 12228); assay: MIC against S. epidermidis; settings: Staphylococcus epidermidis, ATCC12228, CAMHB
[7] = tested on: Enterococcus faecalis (strain ATCC 51575); assay: MIC against E. faecalis; settings: Enterococcus faecalis, ATCC51575, CAMHB
[8] = tested on: M. abscessus subsp. abscessus CCUG 71382; assay: MIC against M. abscessus isolate in 7H9 + ADC; settings: Mycobacteroides abscessus, CCUG71382
M. avium (ATCC 25291) = assay: MIC against M. avium in CAMHB + ADC; settings: Mycobacterium avium, ATCC25291; ATCC 25291; CAMHB + ADC (5%); read-out: MIC M. avium
[9] = tested on: A. baumannii (HUMC1 strain); assay: MIC by broth microdilution against A. baumannii in RPMI + 10% FCS; settings: Acinetobacter baumannii; HUMC1 strain; RPMI + 10% FCS; read-out: MIC A. baumannii
M. abscessus strains = assay: MIC over the five tested M. abscessus strains in 7H9 + ADC; settings: Mycobacteroides abscessus, span over five isolates, read-out: MIC values against the tested M. abscessus strains
M. xenopi (ATCC 19250) = assay: MIC against M. xenopi in CAMHB + ADC; settings: Mycobacterium xenopi, ATCC19250; ATCC 19250; CAMHB + ADC (5%); read-out: MIC M. xenopi
[10] = tested on: A. baumannii RpoB H535Q mutant; assay: microbe, parasite or virus in culture; settings: Acinetobacter baumannii, RPOBH535QMUTANT, read-out: A. baumannii MIC in RPMI + FCS, RpoB H535Q
[11] = tested on: A. baumannii RpoB H535C mutant; assay: microbe, parasite or virus in culture; settings: Acinetobacter baumannii, RPOBH535CMUTANT, read-out: A. baumannii MIC in RPMI + FCS, RpoB H535C
[12] = tested on: A. baumannii RpoB H535L mutant; assay: microbe, parasite or virus in culture; settings: Acinetobacter baumannii, RPOBH535LMUTANT, read-out: A. baumannii MIC in RPMI + FCS, RpoB H535L
[13] = tested on: Enterococcus faecium (strain NCTC 12204); assay: MIC against E. faecium; settings: Enterococcus faecium
[14] = tested on: S. aureus (UAMS-1625 strain); assay: MIC by broth microdilution against S. aureus; settings: Staphylococcus aureus, read-out: MIC S. aureus
A. baumannii Arr-2 = assay: microbe, parasite or virus in culture; settings: Acinetobacter baumannii, ARR2, read-out: A. baumannii MIC in RPMI + FCS, Arr-2
[15] = tested on: M. abscessus subsp. massiliense CCUG 48898; assay: MIC against M. abscessus isolate in 7H9 + ADC; settings: Mycobacteroides abscessus, CCUG48898
[16] = tested on: M. abscessus subsp. abscessus CCUG 71636; assay: MIC against M. abscessus isolate in 7H9 + ADC; settings: Mycobacteroides abscessus, CCUG71636
[17] = tested on: M. abscessus subsp. abscessus CCUG 71382; assay: MIC against M. abscessus isolate in CAMHB; settings: Mycobacteroides abscessus, CCUG71382
[18] = tested on: M. abscessus subsp. massiliense CCUG 48898; assay: MIC against M. abscessus isolate in CAMHB; settings: Mycobacteroides abscessus, CCUG48898
[19] = tested on: M. abscessus subsp. abscessus CCUG 71636; assay: MIC against M. abscessus isolate in CAMHB
[20] = tested on: M. abscessus subsp. bolletii CCUG 50184; assay: MIC against M. abscessus isolate in CAMHB; settings: Mycobacteroides abscessus, CCUG50184
[21] = tested on: M. abscessus subsp. abscessus ATCC 19977; assay: MIC against M. abscessus isolate in CAMHB; settings: Mycobacteroides abscessus, ATCC19977
[22] = ATCC19977, ATCC 19977, 7H9 + ADC, read-out: MIC M. abscessus
[23] = ATCC19977, read-out: M. abscessus MIC in 7H9 + ADC, abscessus ATCC 19977
[24] = NCTC12204, strain NCTC 12204, CAMHB, read-out: MIC E. faecium
[25] = Mycobacteroides abscessus, CCUG71636; read-out: M. abscessus MIC in CAMHB, abscessus CCUG 71636
[26] = Acinetobacter baumannii; read-out: A. baumannii MIC in RPMI + FCS, WT

SMILES	MIC [4, 22] [µg/mL]	MIC (M. kansasii (ATCC 12478)) [µg/mL]	MIC (M. avium (ATCC 25291)) [µg/mL]	MIC [9] [µg/mL]	MIC (M. xenopi (ATCC 19250)) [µg/mL]	MIC [14] [µg/mL]	MIC [17] [µg/mL]	MIC [18] [µg/mL]	MIC [20] [µg/mL]	MIC [21] [µg/mL]	further results
CO[C@H]1/C=C/O[C@@]2(C)Oc3c(C)c(O)c4c(c3C2=O)C(=O)C(N2CCOCC2)=C(NC(=O)/C(C)=C\C=C\[C@H](C)[C@H](O)[C@@H](C)[C@@H](O)[C@@H](C)[C@H](OC(=O)CC(=O)OCC2CCCN(C)C2)[C@@H]1C)C4=O (stereo partly drawn) [CGP4832, reference compound]	–	–	–	–	–	–	–	–	–	–	activity against A. baumannii with Arr- and RpoB mutation-mediated resistance [1]: lost activity compared with rifabutin; antibacterial activity against A. baumannii wild type strain [2]: did not exhibit strong activity
CO[C@H]1/C=C/O[C@@]2(C)Oc3c(C)c(O)c4c(c3C2=O)C2=NC3(CCN(CC(C)C)CC3)NC2=C(NC(=O)/C(C)=C\C=C\[C@H](C)[C@H](O)[C@@H](C)[C@@H](O)[C@@H](C)[C@H](OC(=O)CC(=O)OCC2CCCN(C)C2)[C@@H]1C)C4=O (stereo partly drawn) [Compound 3]	1	0.125	1	≤ 0.002	1	0.06 (≈ 0.0599 µM)	–	–	–	–	MIC [3]: 0.5 µg/mL; MIC [4, 23]: 1 µg/mL; MIC [5]: 1000 µg/mL (≈ 998 µM); MIC [6]: ≤ 2 µg/mL; MIC [7]: 2000 µg/mL (≈ 2000 µM); MIC [8]: 1 µg/mL; MIC (M. abscessus strains): 0.5 to 2 µg/mL; activity against A. baumannii with Arr- and RpoB mutation-mediated resistance [1]: overcame antibiotic resistance mechanisms; antibacterial activity against A. baumannii wild type strain [2]: retained strong antibacterial activity; MIC ([2]; Acinetobacter baumannii, read-out: A. baumannii MIC in RPMI + FCS, WT): ≤ 0.002 µg/mL; MIC [10]: ≤ 0.002 µg/mL; MIC [11]: 0.008 µg/mL; MIC [12]: 0.25 µg/mL; MIC [13, 24]: 1000 µg/mL (≈ 998 µM); MIC (A. baumannii Arr-2): ≤ 0.002 µg/mL; MIC [15]: 2 µg/mL; MIC [16]: 0.5 µg/mL
CO[C@H]1/C=C/OC2(C)Oc3c(C)c(O)c4c(c3C2=O)C2=NC3(CCN(CC(C)C)CC3)NC2=C(NC(=O)/C(C)=C\C=C\[C@H](C)[C@H](O)[C@@H](C)[C@@H](O)[C@@H](C)[C@H](OC(=O)CCCC(=O)N2CCC(N(C)c3ccccc3)CC2)[C@@H]1C)C4=O (stereo partly drawn) [Compound 85]	0.125	0.008	0.25	0.03	0.03	0.5 (≈ 0.458 µM)	1 (≈ 0.916 µM)	1 (≈ 0.916 µM)	1 (≈ 0.916 µM)	1 (≈ 0.916 µM)	MIC [19, 25]: 0.5 µg/mL (≈ 0.458 µM)
CO[C@H]1/C=C/O[C@@]2(C)Oc3c(C)c(O)c4c(c3C2=O)C2=NC3(CCN(CC(C)C)CC3)NC2=C(NC(=O)/C(C)=C\C=C\[C@H](C)[C@H](O)[C@@H](C)[C@@H](O)[C@@H](C)[C@H](OC(=O)CC(=O)NC2CCN(Cc3ccccc3)CC2)[C@@H]1C)C4=O [Compound 90]	0.25	0.008	0.125	0.016	0.25	0.125 (≈ 0.118 µM)	1 (≈ 0.94 µM)	1 (≈ 0.94 µM)	0.5 (≈ 0.47 µM)	1 (≈ 0.94 µM)	MIC ([19]; Mycobacteroides abscessus, CCUG71636, read-out: M. abscessus MIC in CAMHB, abscessus CCUG 71636): 0.125 µg/mL (≈ 0.118 µM)
CO[C@H]1/C=C/O[C@@]2(C)Oc3c(C)c(O)c4c(c3C2=O)C2=NC3(CCN(CC(C)C)CC3)NC2=C(NC(=O)/C(C)=C\C=C\[C@H](C)[C@H](O)[C@@H](C)[C@@H](O)[C@@H](C)[C@H](OC(=O)CC(=O)N2CCN(CC3CCCCC3)CC2)[C@@H]1C)C4=O [Compound 98]	0.125	0.002	0.03	0.03	0.016	0.5 (≈ 0.474 µM)	0.5 (≈ 0.474 µM)	0.5 (≈ 0.474 µM)	0.25 (≈ 0.237 µM)	0.25 (≈ 0.237 µM)	MIC [19, 25]: 0.125 µg/mL (≈ 0.118 µM)
CO[C@H]1/C=C/O[C@@]2(C)Oc3c(C)c(O)c4c(c3C2=O)C2=NC3(CCN(CC(C)C)CC3)NC2=C(NC(=O)/C(C)=C\C=C\[C@H](C)[C@H](O)[C@@H](C)[C@@H](O)[C@@H](C)[C@H](OC(=O)CC(=O)N2CCCN(c3nccc(C(F)(F)F)n3)CC2)[C@@H]1C)C4=O [Compound 125]	0.125	0.008	0.03	0.25	0.06	0.5 (≈ 0.447 µM)	–	–	–	–	–
CO[C@H]1/C=C/O[C@@]2(C)Oc3c(C)c(O)c4c(c3C2=O)C2=NC3(CCN(CC(C)C)CC3)NC2=C(NC(=O)/C(C)=C\C=C\[C@H](C)[C@H](O)[C@@H](C)[C@@H](O)[C@@H](C)[C@H](OC(=O)CC(=O)N2CCCN(Cc3ccccc3)CC2)[C@@H]1C)C4=O [Compound 126]	–	0.004	0.03	0.004	0.03	0.125 (≈ 0.118 µM)	–	–	–	–	MIC ([4]; ATCC19977, read-out: MIC M. abscessus): 0.125 µg/mL
CO[C@H]1/C=C/O[C@@]2(C)Oc3c(C)c(O)c4c(c3C2=O)C2=NC3(CCN(CC(C)C)CC3)NC2=C(NC(=O)/C(C)=C\C=C\[C@H](C)[C@H](O)[C@@H](C)[C@@H](O)[C@@H](C)[C@H](OC(=O)CC(=O)N2CCCN(Cc3ccc(F)cc3)CC2)[C@@H]1C)C4=O [Compound 127]	0.125	0.008	0.125	0.06	0.03	0.25 (≈ 0.231 µM)	–	–	–	–	–
CO[C@H]1/C=C/O[C@@]2(C)Oc3c(C)c(O)c4c(c3C2=O)C2=NC3(CCN(CC(C)C)CC3)NC2=C(NC(=O)/C(C)=C\C=C\[C@H](C)[C@H](O)[C@@H](C)[C@@H](O)[C@@H](C)[C@H](OC(=O)CC(=O)N2CCCN(Cc3ccncc3)CC2)[C@@H]1C)C4=O [Compound 128]	0.25	0.03	0.5	≤ 0.002	0.25	0.06 (≈ 0.0564 µM)	–	–	–	–	–
CO[C@H]1/C=C/O[C@@]2(C)Oc3c(C)c(O)c4c(c3C2=O)C2=NC3(CCN(CC(C)C)CC3)NC2=C(NC(=O)/C(C)=C\C=C\[C@H](C)[C@H](O)[C@@H](C)[C@@H](O)[C@@H](C)[C@H](OC(C)=O)[C@@H]1C)C4=O [Rifabutin, rifabutin]	8	0.001	0.125	≤ 0.002	0.03	0.016 (≈ 0.0189 µM)	> 16	8 (≈ 9.44 µM)	16 (≈ 18.9 µM)	16 (≈ 18.9 µM)	MIC [3]: 8 µg/mL; MIC [4, 23]: 8 µg/mL; MIC [5]: 500 µg/mL (≈ 590 µM); MIC [6]: 4 µg/mL (≈ 4.72 µM); MIC [7]: 4000 µg/mL (≈ 4720 µM); MIC [8]: 16 µg/mL; MIC [19, 25]: 2 µg/mL (≈ 2.36 µM); MIC (M. abscessus strains): 2 to 16 µg/mL; MIC [2, 26]: ≤ 0.002 µg/mL; MIC [10]: 0.004 µg/mL; MIC [11]: 0.03 µg/mL; MIC [12]: > 32 µg/mL; MIC ([13]; NCTC12204, read-out: MIC E. faecium): 125 µg/mL (≈ 148 µM); MIC (A. baumannii Arr-2): 0.125 µg/mL; MIC [15]: 2 µg/mL; MIC [16]: 4 µg/mL
CO[C@H]1/C=C/O[C@@]2(C)Oc3c(C)c(O)c4c(O)c(c(/C=N/N5CCN(C)CC5)c(O)c4c3C2=O)NC(=O)/C(C)=C\C=C\[C@H](C)[C@H](O)[C@@H](C)[C@@H](O)[C@@H](C)[C@H](OC(C)=O)[C@@H]1C [Rifampicin, rifampicin]	–	–	–	–	–	–	–	–	–	–	MIC [3]: > 32 µg/mL; MIC [4, 23]: > 32 µg/mL; MIC [5]: 250 µg/mL (≈ 304 µM); MIC [6]: ≤ 2 µg/mL; MIC [7]: 1000 µg/mL (≈ 1220 µM); MIC [8]: > 32 µg/mL; MIC (M. abscessus strains): > 32 µg/mL; MIC [2, 26]: 32 µg/mL; MIC [10]: > 32 µg/mL; MIC [11]: > 32 µg/mL; MIC [12]: > 32 µg/mL; MIC [13, 24]: 500 µg/mL (≈ 608 µM); MIC (A. baumannii Arr-2): > 32 µg/mL; MIC [15]: 32 µg/mL; MIC [16]: > 32 µg/mL
